Assay results reported in PubChem BioAssay (NCI).
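Results reflect a 48-hour exposure of cells in 96-well plates to compound at five concentrations. Abbreviation: GI50, concentration required for 50% inhibition of growth. TGI denotes the concentration required for complete inhibition of growth.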

Key:
Assay in all cases: NCI-60 cell line screen, 48 h
TK-10 renal = system: TK-10 renal
MOLT-4 leukemia = system: MOLT-4 leukemia
RPMI-8226 leukemia = system: RPMI-8226 leukemia
MDA-MB-231 breast = system: MDA-MB-231 breast
K-562 leukemia = system: K-562 leukemia
EKVX NSCLC = system: EKVX NSCLC
BT-549 breast = system: BT-549 breast
HS 578T breast = system: HS 578T breast
HT29 colon = system: HT29 colon
T-47D breast = system: T-47D breast
A498 renal = system: A498 renal
NCI/ADR-RES ovarian = system: NCI/ADR-RES ovarian
MDA-MB-435 = system: MDA-MB-435
SNB-75 CNS = system: SNB-75 CNS
NCI-H460 lung = system: NCI-H460 lung
UO-31 renal = system: UO-31 renal
COLO 205 colon = system: COLO 205 colon
CCRF-CEM leukemia = system: CCRF-CEM leukemia
ACHN renal = system: ACHN renal
HOP-92 NSCLC = system: HOP-92 NSCLC
UACC-257 melanoma = system: UACC-257 melanoma
A549 NSCLC = system: A549 NSCLC
OVCAR-4 ovarian = system: OVCAR-4 ovarian
HOP-62 NSCLC = system: HOP-62 NSCLC
SR leukemia = system: SR leukemia
SF-268 CNS = system: SF-268 CNS
SK-MEL-2 melanoma = system: SK-MEL-2 melanoma
NCI-H226 lung = system: NCI-H226 lung
OVCAR-8 ovarian = system: OVCAR-8 ovarian
MCF7 breast = system: MCF7 breast
UACC-62 melanoma = system: UACC-62 melanoma
SK-MEL-5 melanoma = system: SK-MEL-5 melanoma
MALME-3M melanoma = system: MALME-3M melanoma
OVCAR-5 ovarian = system: OVCAR-5 ovarian
DU-145 prostate = system: DU-145 prostate
SN12C renal = system: SN12C renal
SW-620 colon = system: SW-620 colon

Compound N#Cc1ccc(CSc2ncnc3nc[nH]c23)cc1 has a GI50 (TK-10 renal) of 37.3 µM, a GI50 (MOLT-4 leukemia) of 92.8 µM and a GI50 (RPMI-8226 leukemia) of 54.9 µM. For the same compound, the GI50 (MDA-MB-231 breast) was 94.4 µM, the GI50 (K-562 leukemia) was 63.7 µM and the GI50 (EKVX NSCLC) was 90.1 µM. It also gave a GI50 (BT-549 breast) of 95 µM, a GI50 (HS 578T breast) of 72 µM and a GI50 (HT29 colon) of 77.3 µM. The GI50 (T-47D breast) was 80.7 µM, the GI50 (A498 renal) was 80 µM and the GI50 (NCI/ADR-RES ovarian) was 54.3 µM. For the same compound, the GI50 (MDA-MB-435) was 79 µM, the GI50 (SNB-75 CNS) was 6.86 µM and the TGI (SNB-75 CNS) was 66.3 µM. The GI50 (NCI-H460 lung) was 43 µM, the GI50 (UO-31 renal) was 30.7 µM and the GI50 (COLO 205 colon) was 52.2 µM. For the same compound, the GI50 (CCRF-CEM leukemia) was 95.1 µM, the GI50 (ACHN renal) was 38.4 µM and the GI50 (HOP-92 NSCLC) was 15.8 µM. For the same compound, the TGI (HOP-92 NSCLC) was 79.5 µM, the GI50 (UACC-257 melanoma) was 73.3 µM and the GI50 (A549 NSCLC) was 92.4 µM. For the same compound, the GI50 (OVCAR-4 ovarian) was 97.4 µM.

Work on COc1ccc(N2C(=O)/C(=C/C(Cl)=C/c3ccc([N+](=O)[O-])cc3)SC2=S)cc1 yielded a GI50 (TK-10 renal) of 2.76 µM, a TGI (TK-10 renal) of over 100 µM and a GI50 (MOLT-4 leukemia) of 0.679 µM. The TGI (MOLT-4 leukemia) was over 100 µM, the GI50 (RPMI-8226 leukemia) was 0.268 µM and the TGI (RPMI-8226 leukemia) was 0.727 µM. The GI50 (MDA-MB-231 breast) was 1.69 µM, the TGI (MDA-MB-231 breast) was over 100 µM and the GI50 (K-562 leukemia) was 0.555 µM. For the same compound, the TGI (K-562 leukemia) was over 100 µM, the GI50 (HS 578T breast) was 3.28 µM and the TGI (HS 578T breast) was over 37.9 µM. For the same compound, the GI50 (T-47D breast) was 0.725 µM, the TGI (T-47D breast) was over 100 µM and the GI50 (NCI/ADR-RES ovarian) was 0.562 µM. For the same compound, the TGI (NCI/ADR-RES ovarian) was over 100 µM, the GI50 (HOP-62 NSCLC) was 2.12 µM and the TGI (HOP-62 NSCLC) was over 100 µM. It also gave a GI50 (SR leukemia) of 0.312 µM, a TGI (SR leukemia) of 22 µM and a GI50 (SF-268 CNS) of 2.95 µM. For the same compound, the TGI (SF-268 CNS) was over 100 µM, the GI50 (UACC-257 melanoma) was 2.88 µM and the TGI (UACC-257 melanoma) was over 100 µM. The GI50 (SK-MEL-2 melanoma) was over 21.3 µM, the TGI (SK-MEL-2 melanoma) was over 100 µM and the GI50 (NCI-H226 lung) was 4.23 µM. It also gave a TGI (NCI-H226 lung) of over 100 µM, a GI50 (OVCAR-8 ovarian) of 0.462 µM and a TGI (OVCAR-8 ovarian) of over 100 µM. For the same compound, the GI50 (MCF7 breast) was 0.393 µM and the TGI (MCF7 breast) was over 100 µM.

With CCCCNCCC(O)c1cc2ccc(C(F)(F)F)cc2c2cc(C(F)(F)F)ccc12 (stereo not drawn) the GI50 (TK-10 renal) was 1.88 µM, the TGI (TK-10 renal) was 3.39 µM and the GI50 (RPMI-8226 leukemia) was 2.04 µM. The TGI (RPMI-8226 leukemia) was 4.63 µM, the GI50 (UACC-62 melanoma) was 1.78 µM and the TGI (UACC-62 melanoma) was 3.35 µM. It also gave a GI50 (A498 renal) of 1.32 µM, a TGI (A498 renal) of 2.64 µM and a GI50 (SK-MEL-5 melanoma) of 1.69 µM. For the same compound, the TGI (SK-MEL-5 melanoma) was 3.06 µM, the GI50 (COLO 205 colon) was 0.339 µM and the TGI (COLO 205 colon) was 1.07 µM. The GI50 (MALME-3M melanoma) was 1.96 µM, the TGI (MALME-3M melanoma) was 3.87 µM and the GI50 (OVCAR-5 ovarian) was 1.61 µM. For the same compound, the TGI (OVCAR-5 ovarian) was 3.13 µM, the GI50 (DU-145 prostate) was 1.87 µM and the TGI (DU-145 prostate) was 3.38 µM. For the same compound, the GI50 (SN12C renal) was 1.82 µM, the TGI (SN12C renal) was 3.41 µM and the GI50 (SW-620 colon) was 1.3 µM. The TGI (SW-620 colon) was 2.79 µM, the GI50 (HOP-92 NSCLC) was 1.1 µM and the TGI (HOP-92 NSCLC) was 2.44 µM. The GI50 (UACC-257 melanoma) was 1.52 µM and the TGI (UACC-257 melanoma) was 3.02 µM.
